Results published in article PMC10291556 (Journal of Medicinal Chemistry, 2023).

How the values were obtained:
tubulin in HeLa cells = assay: Western blotting of tubulin; format: cell-based, human; details: 24 h, 0.25× or 0.5× IC50,72h, Western blot
Protocol: Figure 2 Western blotting analyses of tubulin in protein extract from HeLa cells treated with the investigated Pt complexes. (A) Representative membranes. […] Proteins from control, untreated cells were loaded to lane C. (B) Quantitative data evaluation; bars represent mean ± SD from two independent experiments.
HeLa cells were seeded in 60 mm dishes at a density of 3 × 10^5 cells/dish and cultured for 20 h. The cells were then treated with the tested compounds at concentrations indicated in the text. After 24 h of treatment, the cells were scraped, washed, and pelleted. […] After transferring to the polyvinylidene fluoride membrane, the proteins were detected using appropriate antibodies: anti-GAPDH antibody (mouse, Sigma-Aldrich), Anti-COX-2 (rabbit, Abcam), Anti-α-, β-, or γ-tubulin (all rabbit, Abcam), Anti-β-actin (mouse, Abcam), Goat Anti-Rabbit IgG(HRP) (Abcam; HRP = horseradish peroxidase), and Goat Anti-Mouse IgG(HRP) (ThermoFisher Scientific). SignalFire ECL Reagent (A + B) was used as a substrate for HRP, and the luminescence was recorded with Amersham Imager 680. The densities in the images were assessed with the Aida image analysis software.

[1] = NMR reduction studies with GSH or ascorbic acid; format: physicochemical; details: up to 10 equiv of reducing agent, 48 h, 37 °C, PBS/D2O, 1H NMR
Protocol: Thus, all compounds were >95% pure by NMR and HPLC analyses. NMR reduction studies were also undertaken where excess equivalents of reducing agents GSH or ascorbic acid were added to the sample before undertaking multiple NMR measurements over a 48 h period at 37 °C. These reducing agents were chosen to mimic the reducing capacity of the […] environment of the blood and tissue. […] However, once inside the cell, reactions with intracellular components might be induced, rendering the prodrug biodegradable. […] Therefore, the complex is unlikely to be reduced in the bloodstream. Monitoring the Pt(IV) peak, falling as the Pt(II) peak rises, would be ideal for further proof of the stability of these complexes, but the Pt(IV) resonance falls outside the detectable range of our instrument.
One equivalent of the complex was dissolved in 500 μL of PBS using D2O for a ^1H NMR experiment performed on a Bruker AVANCE 400 MHz NMR spectrometer, with 50 dummy scans (approx. 5 min) to allow the sample to reach 37 °C before 128 scans were taken. The sample was removed, and the reducing agent was quickly added. Then the NMR measurement was taken again (50 dummy scans followed by 128 scans). The NMR was subsequently set up to measure one 128-scan experiment after another for 4 h, at which point the sample was removed, stored, and scanned again after 24 and 48 h. […]

| Compound | reduction of the amount of tubulin in cell extracts (tubulin in HeLa cells) | stability towards reduction by GSH or ascorbic acid [1] |
| --- | --- | --- |
| Cc1c(C)c2c3c4c1=CC=C[N]4[Pt]([Cl])[N]3C=CC=2.NCCNC(=O)Cc1ccccc1Nc1c(Cl)cccc1Cl.N[C@H]1CCCC[C@@H]1N [complex 3, Pt(IV)56MESSenDCFCl] | higher potency of the two complexes to reduce the amount of tubulin | – |
| Cc1c(C)c2c3c4c1=CC=C[N]4[Pt][N]3C=CC=2.NCCNC(=O)Cc1ccccc1Nc1c(Cl)cccc1Cl.NCCNC(=O)Cc1ccccc1Nc1c(Cl)cccc1Cl.N[C@H]1CCCC[C@@H]1N [complex 4, Pt^IV56MeSS(DCF)2] | higher potency of the two complexes to reduce the amount of tubulin | the compound had not been reduced |
